# Assay results reported in US20220151979A1, “COMPOSITION FOR PREVENTION OR TREATMENT OF CARDIOVASCULAR AND METABOLIC DISEASE COMPRISING NORANHYDROICARITIN” (SEOUL NATIONAL UNIVERSITY HOSPITAL, priority 2019, published 2022).
# Assays:
# HEK293T cells = assay: MTT cell viability of HEK293T cells; format: cell-based, human; conditions: 20 μM, 24 hours, relative to DMSO negative control
# Description: In order to confirm the toxicity of noranhydroicaritin to cells, HEK293T (human embryonic kidneys) were treated with noranhydroicaritin at various concentrations, and the cell viability at each concentration of noranhydroicaritin was calculated through the MTT screening method.
# Specifically, HEK293T cells were suspended in DMEM (Welgene Inc.) medium containing 10% fetal bovine serum at a concentration of 1×10^5 cells/mL, and 100 μL thereof was inoculated into each well of a 96-well plate. After 4 hours, the HEK293T cells in the well plate were treated with noranhydroicaritin samples at concentrations of 2.5 μM, 5 μM, 10 μM, and 20 μM. After incubation for 24 hours, 5 μL of MTT (5 mg/mL) was added to the well plate, and the cells were further incubated for 4 hours. Thereafter, the medium was removed, 100 μL of DMSO was added to the well plate, the reaction was conducted, and then the absorbance was measured at 570 nm. As a control, cholesterol synthesis inhibitors atorvastatin (Ato) and rosuvastatin (Ros) were used. The cell viability was calculated according to the mathematical formula as a value relative to 100% of the value for the negative control treated only with DMSO. The results are illustrated in FIG. 2.
# PPARα = PPARα expression in HepG2 cells (RealTime-PCR, immunohistochemistry); format: cell-based, human
# Description: In order to confirm the effect of increasing the expression of PPARα and PPARγ of noranhydroicaritin, PCR using PPARα primers and immunohistochemistry targeting PPARα and PPARγ were performed to confirm the expression levels.
# Using cDNA synthesized with RNA according to the method of Example 4, the quantities of PPARα mRNA and PPARγ mRNA were confirmed through RealTime-PCR analysis. The group treated only with DMSO was used as a negative control. For immunohistochemistry, HepG2 cells were attached to a slide chamber, then treated with noranhydroicaritin at 20 μM, and incubated. After fixation with formalin, the HepG2 cells were stained with antibodies targeting PPARα and PPARγ, and treated with DAPI to stain nuclei, and the degree of fluorescent expression was confirmed using a confocal microscope.
# TNF-α = assay: Immunofluorescence of TNF-α in carotid artery, mouse arteriosclerosis model; format: in vivo; conditions: 10 μg/g/day
# Description: (§1) Carotid artery ligation was performed one week after injection of AAV-PCSK9 Virus (1×10^11 IFU/mL) and noranhydroicaritin (10 μg/g/day). After 3 weeks of ligation, it was confirmed whether the atherosclerosis model was completed, and gross plaque imaging and immunofluorescence were performed to confirm the arteriosclerosis inhibitory effect of noranhydroicaritin.
# (§2) Furthermore, the arteriosclerosis inhibitory effect of noranhydroicaritin was confirmed using immunofluorescence. Specifically, a mouse carotid artery was obtained and fixed in 4% PFA for one day, and then prepared into a block. As the inflammatory response in blood vessels progresses, the arteriosclerosis worsens, and thus the marker […] of macrophages causing arteriosclerotic inflammatory response and TNF-α, IL-1B, and MCP-1, which are pro-inflammatory cytokines secreted when the inflammatory response occurs, were stained. Staining was performed using the antibody for each of CAP1(1:200), PCSK9(1:100), F4/80(1:100), TNF-α(1:100), […], and MCP-1(1:100), then imaging was performed using a confocal microscope, and […] was evaluated.
# LDLR = assay: Immunoblot of LDLR in HepG2 cells; format: cell-based, human; conditions: HepG2 cells, 5, 10, 20 μM
# Description: (§3) In order to confirm the effect of noranhydroicaritin to inhibit PCSK9 expression and increase LDLR expression, immunoblotting targeting PCSK9 and LDLR was performed and the expression levels were compared. β-Actin was used as a control.
# (§4) In a 100 mm Petri dish, 1×10^6 HepG2 cells were aliquoted and treated with noranhydroicaritin at various concentrations (5 μM, 10 μM, and 20 μM), and then the cells were removed from the cell-culture dish and homogenized using a protein extraction solution (NP40, ELPIS BIOTECH, Korea) containing a protease inhibitor cocktail (Roche).
# (§5) In order to prepare the total protein, the cells were extracted in RIPA lysis buffer (50 mM Tris-HCl (pH 7.4), 150 mM NaCl, 5 mM EDTA, 5 mM EGTA, 5 mM sodium fluoride, 2 mM sodium orthovanadate, 1% NP-40, 0.1% sodium dodecyl sulfate [SDS], 1 mM phenylmethylsulfonyl fluoride [PMSF], and protein inhibitor cocktail [Roche Diagnostics, Heidelberg, Germany]). The protein concentration in the lysate was measured using the Bio-Rad dye-binding micro assay. For immunoblotting, 30 μg of cell lysate was isolated via SDS-polyacrylamide gel electrophoresis (PAGE). The proteins were transferred onto the Hybond-ECL nitrocellulose membrane (Amersham Biosciences, Buckinghamshire, UK). […] HRP-conjugated secondary antibodies were detected using an ECL detection reagent.
# PCSK9 [1] = assay: Immunofluorescence of PCSK9 in carotid artery, mouse arteriosclerosis model; format: in vivo; conditions: 10 μg/g/day, compared to control
# Description: as §1, §2
# F/480 = assay: Immunofluorescence of macrophage marker F/480 in carotid artery, mouse arteriosclerosis model; format: in vivo; conditions: 10 μg/g/day
# Description: as §1, §2
# PCSK9 [2] = assay: Immunoblot of PCSK9 in HepG2 cells, noranhydroicaritin and pravastatin, pitavastatin, fluvastatin or simvastatin (Table 1); format: cell-based, human; conditions: noranhydroicaritin 20 μM singly, untreated = 1 ± 0.04
# Description: The cells aliquoted by the method of Example 7 were treated with noranhydroicaritin or each statin (pravastatin, pitavastatin, fluvastatin, or simvastatin) singly or with noranhydroicaritin and a statin (pravastatin, pitavastatin, fluvastatin, or simvastatin) simultaneously, and the proteins were extracted. On an SDS-polyacrylamide gel, 30 μg of each protein was electrophoresed, and attached to a membrane, and then protein expression levels were confirmed using the respective antibodies: PCSK9 and LDLR.
# PCSK9 [3] = assay: Immunoblot of PCSK9 in HepG2 cells; format: cell-based, human; conditions: HepG2 cells, 5, 10, 20 μM
# Description: as §3, §4, §5
smiles,measurement,setting,value
"CC(C)=CCc1c(O)cc(O)c2c(=O)c(O)c(-c3ccc(O)cc3)oc12 [Noranhydroicaritin, noranhydroicaritin]",cell viability,HEK293T cells,≥ 90%
same,expression of PPARα,PPARα,increased in a concentration-dependent manner
same,expression of TNF-α (immunofluorescence),TNF-α,decreased
same,LDLR expression (immunoblot),LDLR,increased in a concentration-dependent manner
same,expression of PCSK9 (immunofluorescence),PCSK9 [1],significantly decreased
same,"expression of F/480, a marker of macrophages (immunofluorescence)",F/480,also decreased
same,PCSK9,PCSK9 [2],0.34 ± 0.02
same,PCSK9 expression (immunoblot),PCSK9 [3],decreased in a concentration-dependent manner
